Laboratory results taken from US10704076B2, “Multi-tiered high through-put screen for compounds effective against bacterial biofilm and compounds effective for inhibiting and eradicating bacterial biofilm” (University of Cincinnati, priority 2013, dated 2020).
Converted amounts (≈) assume the structure as drawn. Where two headings read alike, the source gives them in different places.

Legend:
P. aeruginosa [1] = assay: MIC determination (CLSI, Mueller Hinton broth), planktonic cultures; format: cell-based, Pseudomonas aeruginosa; conditions: for MIC: Pseudomonas aeruginosa
Method: (§1) A standard protocol for determining the MIC of a specific compound as outlined by the Clinical and Laboratory Standards Institute (CLSI) was used, based on growth of the selected bacteria in Mueller Hinton (MH) broth with subsequent 2-fold dilutions of compounds of interest. Following the CLSI protocols, the MIC of each broad spectrum “hit” compound was performed in all 3 bacterial species in both aerobic and anaerobic conditions. All bacteria were grown in MH broth for 18 hrs at 37° C. The cells were then diluted 100-fold into MH broth containing compounds at concentrations ranging from 0.40-50 μM in the presence of either KNO3 or glucose to allow bacterial growth under anaerobic condition. After 24 hrs of incubation, cell growth was measured at OD600 using a SpectraMax 190 Absorbance Microplate Reader.
(§2) The HTS and CLSM assays identified and confirmed compounds that can inhibit biofilms formation in aerobic growth conditions. However, P. aeruginosa and S. epidermidis are capable of growth under anaerobic as well as aerobic conditions. […] The Minimal Inhibitory Concentrations (MIC) of the four broad agent hit compounds under both aerobic and anaerobic conditions of planktonic P. aeruginosa and S. epidermidis cultures were determined to evaluate compound efficacy in different growth conditions. The MICs for A. baumannii were determined only in aerobic conditions. To examine growth in aerobic conditions, bacteria were grown in either Mueller Hinton (MH) media only, MH media in the presence of 1% KNO3, or MH in the presence of 1% glucose. For MIC determinations under anaerobic conditions, growth was examined in MH media with 1% KNO3 or with 1% glucose.

S. epidermidis biofilm = assay: HTS total biofilm formation assay (crystal violet staining); format: cell-based; conditions: Staphylococcus epidermidis, dose-response
Text: (§3) Each HTS tier consisted of: (i) primary screening, (ii) confirmation screening and (iii) dose-response curve screening. Each tier of HTS included three distinct biological process assays. The first assay was an optical density measurement of bacteria growth in the presence of each compound reported as a total bacteria growth. In the second assay, resazurin solution was used as an indicator of metabolic activity to measure the live bacteria in the biofilms, reported as live biofilm. The final assay was crystal violet staining, which indicated the amount of biofilm formation and the effect of each compound on this process, reported as total biofilm formation.
(§4) Briefly, stationary phase bacteria grown in L-broth were diluted 1:200 into fresh L-broth and 50 μM of each test compound. After 20-24 hours, the optical density (OD560) of each suspension was measured using Zeiss Plate::Vision with a 560 BP filter (560 nm, 2.5% light intensity, 1 mm focus to bottom of plate, and exposure time of 100 ms). To measure bacterial viability in the biofilm, 50 μl of a 5 mg/ml resazurin solution in L-broth was added to each well after washing 3 times with 50 μl of PBS. The plates were then incubated at 37° C. for 30 or 180 min for A. baumannii and P. aeruginosa biofilms, respectively. Fluorescence was measured using Zeiss Plate::Vision at excitation and emission wavelengths of 535 and 580 nm, 100 ms exposure time, 2.5% intensity and a 2 mm focus to the bottom of the biofilms. To assess biofilm formation, plates were washed 3 times with PBS and then 50 μl of 0.01% of crystal violet was added to each well to assess bacterial biofilm formation as described in a similar borosilicate tube assay by O'Toole and Kolter. After incubation at room temperature for 30 min and removal of the crystal violet solution by washing with PBS, 95% ethanol was added to solubilize the crystal violet followed by incubation for 20 min at room temperature. Finally, the optical density of each plate was determined using measured by Zeiss Plate::Vision using the same settings used to measure total bacterial growth. These 3 steps were used in each of the three tiers for the HTS process: (i) single point primary screening at 10 μM, (ii) triplicate confirmation of hits from (i) at 10 μM and (iii) determination of AC50 values in 10 point dose-response at a concentration range of 0.1-50 μM) in hits from (ii). The AC50 represents the concentration of compound that inhibits 50% of bacterial growth, bacterial viability, or biofilm formation. Genedata Screener® Assay Analyzer Software (Ver. 9.0.0 Standard) was used to analyze data from all assay tiers. Compounds with an AC50 of less than 20 μM in one of the biological assays from the dose response screen were subject to additional investigation.

P. aeruginosa [2] = assay: HTS total bacterial growth assay (optical density OD560); format: cell-based, Pseudomonas aeruginosa; conditions: for AC50: Pseudomonas aeruginosa, 10 point dose-response 0.1-50 μM, read-out: Total Bacteria Growth AC50
Text: as §3, §4

S. epidermidis = assay: MIC determination (CLSI, Mueller Hinton broth), planktonic cultures; format: cell-based; conditions: Staphylococcus epidermidis
Method: as §1, §2

[3] = tested on: P. aeruginosa established biofilm; assay: CLSM, effect of compound on the pre-existing biofilm; format: cell-based, Pseudomonas aeruginosa
[4] = MH with 1% KNO3, Aerobic, read-out: Minimum Inhibition Concentration
[5] = MH with 1% KNO3, Anaerobic, read-out: Minimum Inhibition Concentration
[6] = MH, Aerobic, read-out: Minimum Inhibition Concentration
[7] = across all growth conditions (aerobic and anaerobic), read-out: concentration required to inhibit planktonic P. aeruginosa growth (MIC)
[8] = MH with 1% Glucose, Aerobic, read-out: Minimum Inhibition Concentration
[9] = MH with 1% Glucose, Anaerobic, read-out: Minimum Inhibition Concentration
[10] = across all media and conditions (aerobic and anaerobic), read-out: concentration required to inhibit planktonic S. epidermidis growth (MIC)

MIC (P. aeruginosa [1]; [4])	MIC (P. aeruginosa [1]; [5])	MIC (P. aeruginosa [1]; [6])	MIC (P. aeruginosa [1]; [7])	MIC (S. epidermidis; [8])	MIC (S. epidermidis; [9])	MIC (S. epidermidis; [4])	MIC (S. epidermidis; [5])	MIC (S. epidermidis; [6])	MIC (S. epidermidis; [10])	Compound	AC50 (S. epidermidis biofilm)	AC50 (P. aeruginosa [2])	effective on established P. aeruginosa biofilm at 100 μM (CLSM, in words) [3]	Minimum Inhibition Concentration (P. aeruginosa [1]; MH with 1% KNO3, Anaerobic)	HTS assay results: Total Bacteria growth (P. aeruginosa [2]; Y / —)
> 50 µM	25 ± 12.5 µM (≈ 8.56 µg/mL)	> 50 µM	≥ 25 µM	7.81 ± 2.71 µM (≈ 2.67 µg/mL)	7.29 ± 2.76 µM (≈ 2.5 µg/mL)	7.81 ± 2.71 µM (≈ 2.67 µg/mL)	4.17 ± 1.04 µM (≈ 1.43 µg/mL)	5.73 ± 3.42 µM (≈ 1.96 µg/mL)	4 to 10 µM (≈ 1.37 to 3.42 µg/mL)	O=C(O)c1cn(C2CC2)c2c(F)c(-c3ccncc3)c(F)cc2c1=O [Compound 11, 7-(4-pyridyl)-1-cyclopropyl-6,8-difluoro-4-oxoquinoline-3-carboxylic acid]	< 0.1 µM	16 µM	–	–	–
33.3 ± 8.33 µM (≈ 5.82 µg/mL)	25 µM (≈ 4.37 µg/mL)	> 50 µM	≥ 25 µM	10.4 ± 2.08 µM (≈ 1.82 µg/mL)	16.7 ± 4.17 µM (≈ 2.91 µg/mL)	25 µM (≈ 4.37 µg/mL)	16.7 ± 4.17 µM (≈ 2.91 µg/mL)	20.8 ± 4.17 µM (≈ 3.64 µg/mL)	10 to 25 µM (≈ 1.75 to 4.37 µg/mL)	Cn1sc(Cl)c(C#N)c1=O [Compound 3, 5-chloro-2-methyl-3-oxo-1,2-thiazole-4-carbonitrile]	8.84 µM	9.27 µM	effective at killing	–	–
≤ 20 µM	7 µM (≈ 2.35 µg/mL)	10.4 ± 2.08 µM (≈ 3.5 µg/mL)	–	0.65 ± 0.13 µM (≈ 0.219 µg/mL)	0.78 ± 0.39 µM (≈ 0.262 µg/mL)	0.78 ± 0.39 µM (≈ 0.262 µg/mL)	0.39 µM (≈ 0.131 µg/mL)	0.65 ± 10.1 µM (≈ 0.219 µg/mL)	< 1 µM	O=C(O)c1cn(C2CC2)c2c(F)c(N3CC(O)C3)c(F)cc2c1=O [Compound 8, 1-cyclopropyl-6,8-difluoro-7-(3-hydroxyazetidin-1-yl)-4-oxoquinoline-3-carboxylic acid]	< 0.1 µM	44.4 µM	–	7.81 ± 2.71 µM	—* (AC50 higher than 20 μM)
5.21 ± 1.04 µM (≈ 2.03 µg/mL)	4.17 ± 1.04 µM (≈ 1.63 µg/mL)	4.7 ± 1.04 µM (≈ 1.84 µg/mL)	4 to 5 µM (≈ 1.56 to 1.95 µg/mL)	5.86 ± 2.42 µM (≈ 2.29 µg/mL)	5.21 ± 1.04 µM (≈ 2.03 µg/mL)	10.4 ± 2.08 µM (≈ 4.07 µg/mL)	5.21 ± 1.04 µM (≈ 2.03 µg/mL)	8.33 ± 2.08 µM (≈ 3.25 µg/mL)	4 to 10 µM (≈ 1.56 to 3.9 µg/mL)	NC(=S)N1CCN(c2cc3c(cc2F)c(=O)c(C(=O)O)cn3C2CC2)CC1 [Compound 7, 7-(4-carbamothioylpiperazin-1-yl)-1-cyclopropyl-6-fluoro-4-oxoquinoline-3-carboxylic acid]	1.12 µM	3 µM	effective	–	–
